From PMC11992225, “Antibacterial compounds against non-growing and intracellular bacteria” (npj Antimicrobials and Resistance, 2025)
In brackets after ≈: the same amount, converted by molar mass. Read-outs that look alike come from different tables or passages of the source.

Experiments:
P. aeruginosa DSM1117 = experiment: MIC, standard microdilution assay, growing P. aeruginosa; type: cell-based, Pseudomonas aeruginosa; conditions: Pseudomonas aeruginosa
Outline: (§1)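 Each strain was exposed to serially diluted compound in broth, in triplicate. The media were TSB for Shigella; CA-MHB at pH 7.4 (HEPES 40 mM) for S. aureus, P. aeruginosa and UPEC; and, for UPEC only, low-pH LPM (pH 5.5, 30 mM MES).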

S. flexneri 5a M90T = experiment: MIC in tryptic soy broth, S. flexneri; type: cell-based, Shigella flexneri; conditions: Shigella flexneri, 5AM90T, read-out: MIC (μM) TSB
Outline: as §1

S. aureus DSM2569 = experiment: MIC, standard microdilution assay, growing S. aureus; type: cell-based, Staphylococcus aureus; conditions: Staphylococcus aureus, DSM2569, pH 7.4, read-out: MIC (μM) CA-MHB
Outline: as §1

[1] = test system: non-growing P. aeruginosa DSM1117; experiment: Dilution-regrowth assay (OD600, start-growth-time) on stationary-phase P. aeruginosa; type: cell-based, Pseudomonas aeruginosa; conditions: for Regrowth, OD600 at 6h or 8h after dilution into drug-free medium (average): P. aeruginosa
Description: To determine the spectrum of activity of the compounds that were effective against non-growing UPEC, we further assessed their efficacy against the well-characterized Gram-negative and Gram-positive reference strains P. aeruginosa DSM1117 and S. aureus DSM2569, respectively. The cultures were grown and treated for 24 h in 1:4 CA-MHB (pH 7.4). […].
For better characterization of the compounds causing the strongest regrowth delay, we performed the regrowth step of the dilution-regrowth experiments on a plate reader, measuring the OD600 at 20-min intervals for over 20 h instead of using an endpoint measurement. This approach allowed us to capture the time when cultures reached a threshold optical density (start-growth-time, SGT[15]).
Overnight cultures of UPEC, P. aeruginosa and S. aureus were grown in test tubes containing 3 ml of LB broth (~16 h), then diluted 1:100 into either 1:4 diluted CA-MHB medium buffered with 40 mM HEPES (pH 7.4) or, in case of UPEC, into LPM medium[25] supplemented with 49 µM MgCl2 and buffered with 30 mM MES (pH 5.5). The cultures were incubated for 24 h in non-baffled Erlenmeyer flasks at 37 °C with shaking at 200 rpm.
For P. aeruginosa and S. aureus, dose–response analysis was conducted in 96-well plates with a 200 μl assay volume, following the procedure used for screening assay validation experiments. Aliquots of the 39 compounds active against non-growing UPEC were obtained from SelleckChem and MedChem Express. Stock solutions were prepared and stored according to the manufacturers’ instructions, then diluted in 10% DMSO before use. Cultures were incubated for 24 h in 1:4 diluted CA-MHB medium under the same conditions used for UPEC cultivation. In preliminary experiments, each compound was tested at a concentration of 20 μM in the dilution-regrowth assay with 4 technical replicates. Regrowth was monitored using a microplate reader at 37 °C with continuous shaking, and OD600 was recorded every 20 min. The time at which OD600 exceeded the threshold of 0.12 was recorded as the Start_Growth-Time.
The statistical analysis of all data, as well as EC50 and IC50 determination, was conducted using GraphPad Prism 10.2.3. Statistical significance of the drug effects was assessed using a one-way ANOVA followed by Dunnett’s test, comparing each treatment to the drug-free control. Statistical significance of the differences in chemical characteristics between the hit compounds and the Prestwick library was assessed using a Mann–Whitney test. Statistical significance was set at P ≤ 0.05. A five-parameter logistic equation was used for asymmetric sigmoidal curve fitting and for EC50 and IC50 determination. The Venn diagram in Fig. 1F was prepared using BioVenn web application. Characteristics of the chemical and physical properties of Prestwick library compounds were obtained from Supplementary Table S1 from reference. Characteristics of the hit compounds not included in the Prestwick library were retrieved from the PubChem database.

non-growing UPEC CFT073 = experiment: Dilution-regrowth assay (screen, hit validation, dose-response) on stationary-phase UPEC; type: cell-based, Escherichia coli; conditions: for EC50: Escherichia coli
Outline: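 Regrowth (OD600 after 6 h, 37 °C) of diluted non-growing CFT073, following 24 h compound treatment of 24 h stationary cultures, defines activity relative to untreated control. Screen at 20 µM, validation at 20, 10, 5 µM (duplicates), dose–response in three biological replicates fitted by five-parameter logistic.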

E. coli CFT073 (UPEC) = experiment: MIC, standard microdilution assay, growing UPEC; type: cell-based, Escherichia coli; conditions: Escherichia coli
Outline: as §1

Q: Which MIC (P. aeruginosa DSM1117; DSM1117, pH 7.4, read-out: MIC (μM) 1:4 CA-MHB) does the source give for `CO[C@@]12[C@H](COC(N)=O)C3=C(C(=O)C(C)=C(N)C3=O)N1C[C@@H]1N[C@@H]12` [Mitomycin C] here?
A: Its MIC is 10 µM (≈ 3.34 µg/mL).

Q: What about the MIC (P. aeruginosa DSM1117; DSM1117, pH 7.4, read-out: MIC (μM) CA-MHB) of the same compound?
A: Its MIC is 10 µM (≈ 3.34 µg/mL).

Q: And the MIC (S. flexneri 5a M90T)?
A: The MIC was 1 µM (≈ 0.334 µg/mL).

Q: And the MIC (S. aureus DSM2569)?
A: The MIC was 0.25 µM (≈ 0.0836 µg/mL).

Q: And the “Regrowth, OD600 at 6h or 8h after dilution into drug-free medium (average)” value ([1]; drug concentration 0.1)?
A: The value was 0.203.

Q: And the “Regrowth, OD600 at 6h or 8h after dilution into drug-free medium (average)” value ([1]; drug concentration 0.5)?
A: Its value is 0.116.

Q: What about the “Regrowth, OD600 at 6h or 8h after dilution into drug-free medium (average)” value ([1]; drug concentration 2.5) of the same compound?
A: The value was 0.094.

Q: And the “Regrowth, OD600 at 6h or 8h after dilution into drug-free medium (average)” value ([1]; drug concentration 10)?
A: Its value is 0.095.

Q: And the EC50 ([1]; Pseudomonas aeruginosa, DSM1117, pH 7.4)?
A: The EC50 was 0.028 µM.

Q: What about the “Regrowth, OD600 at 6h or 8h after dilution into drug-free medium (average)” value (non-growing UPEC CFT073; E. coli in 1:4 CA-MHB (pH 7.4), drug concentration 0.25) of the same compound?
A: The value was 0.575.

Q: And the “Regrowth, OD600 at 6h or 8h after dilution into drug-free medium (average)” value (non-growing UPEC CFT073; E. coli in 1:4 CA-MHB (pH 7.4), drug concentration 0.5)?
A: Its value is 0.556.

Q: What about the “Regrowth, OD600 at 6h or 8h after dilution into drug-free medium (average)” value (non-growing UPEC CFT073; E. coli in 1:4 CA-MHB (pH 7.4), drug concentration 1) of the same compound?
A: The value was 0.551.

Q: What about the “Regrowth, OD600 at 6h or 8h after dilution into drug-free medium (average)” value (non-growing UPEC CFT073; E. coli in 1:4 CA-MHB (pH 7.4), drug concentration 2.5) of the same compound?
A: The value was 0.482.

Q: And the “Regrowth, OD600 at 6h or 8h after dilution into drug-free medium (average)” value (non-growing UPEC CFT073; E. coli in 1:4 CA-MHB (pH 7.4), drug concentration 5)?
A: The value was 0.179.

Q: What about the “Regrowth, OD600 at 6h or 8h after dilution into drug-free medium (average)” value (non-growing UPEC CFT073; E. coli in 1:4 CA-MHB (pH 7.4), drug concentration 10) of the same compound?
A: Its value is 0.065.

Q: What about the “Regrowth, OD600 at 6h or 8h after dilution into drug-free medium (average)” value (non-growing UPEC CFT073; E. coli in 1:4 CA-MHB (pH 7.4), drug concentration 30) of the same compound?
A: Its value is 0.063.

Q: What about the “Regrowth, OD600 at 6h or 8h after dilution into drug-free medium (average)” value (non-growing UPEC CFT073; E. coli in LPM (pH 5.5), drug concentration 0.25) of the same compound?
A: The value was 0.474.

Q: And the “Regrowth, OD600 at 6h or 8h after dilution into drug-free medium (average)” value (non-growing UPEC CFT073; E. coli in LPM (pH 5.5), drug concentration 0.5)?
A: Its value is 0.440.

Q: And the “Regrowth, OD600 at 6h or 8h after dilution into drug-free medium (average)” value (non-growing UPEC CFT073; E. coli in LPM (pH 5.5), drug concentration 1)?
A: The value was 0.294.

Q: What about the “Regrowth, OD600 at 6h or 8h after dilution into drug-free medium (average)” value (non-growing UPEC CFT073; E. coli in LPM (pH 5.5), drug concentration 2.5) of the same compound?
A: Its value is 0.140.

Q: What about the “Regrowth, OD600 at 6h or 8h after dilution into drug-free medium (average)” value (non-growing UPEC CFT073; E. coli in LPM (pH 5.5), drug concentration 5) of the same compound?
A: The value was 0.136.

Q: And the “Regrowth, OD600 at 6h or 8h after dilution into drug-free medium (average)” value (non-growing UPEC CFT073; E. coli in LPM (pH 5.5), drug concentration 10)?
A: Its value is 0.136.

Q: What about the “Regrowth, OD600 at 6h or 8h after dilution into drug-free medium (average)” value (non-growing UPEC CFT073; E. coli in LPM (pH 5.5), drug concentration 30) of the same compound?
A: The value was 0.134.

Q: What about the EC50 (non-growing UPEC CFT073; pH 5.5) of the same compound?
A: Its EC50 is 0.706 µM.

Q: What about the EC50 (non-growing UPEC CFT073; pH 5.5, read-out: EC50 (regrowth inhibition curve, Fig. S4)) of the same compound?
A: The EC50 was 0.69 µM.

Q: What about the EC50 (non-growing UPEC CFT073; pH 7.4) of the same compound?
A: The EC50 was 3.68 µM.

Q: What about the EC50 (non-growing UPEC CFT073; pH 7.4, read-out: EC50 (regrowth inhibition curve, Fig. S4)) of the same compound?
A: The EC50 was 3.77 µM.

Q: And the “activity against non-growing UPEC in LPM (pH 5.5) compared to 1:4 CA-MHB (pH 7.4)” value (non-growing UPEC CFT073; regrowth delay and killing, Figs. 2 and 3)?
A: The value was “potentiated by the low pH”.

Q: What about the MIC (E. coli CFT073 (UPEC); pH 5.5) of the same compound?
A: Its MIC is 0.5 µM (≈ 0.167 µg/mL).

Q: What about the MIC (E. coli CFT073 (UPEC); pH 7.4, read-out: MIC (μM) CA-MHB) of the same compound?
A: The MIC was 2 µM (≈ 0.669 µg/mL).
